Results: US9745283B2, “Uracil derivatives as AXL and c-MET kinase inhibitors” (priority 2011, dated 2017)

Key:
[1] = biological target: recombinant human baculovirus-expressed AXL (Homo sapiens (Human), UniProt P30530); assay: AXL Kinase Assay (HTRF KinEASE); assay type: biochemical; conditions: average of two or more determinations
Procedure: The ability of compounds to inhibit the kinase activity of recombinant human baculovirus-expressed AXL was measured by homogeneous TRF (HTRF) using Cisbio's KinEASE™ assay system in white 384-well Optiplates. Assay buffer contained 1 mM DTT, 2 mM MnCl2, 2% DMSO, […] supplement enzymatic buffer, and 1× enzymatic buffer. A 2× concentration of tyrosine kinase (TK) substrate-biotin/ATP mixture made in assay buffer was added to plates at 10 μL/well using the Multidrop Combi (Thermo Fisher Scientific, Waltham, Mass.). […] Compounds (100 nL), diluted in 100% DMSO on the Biomek FX, (Beckman Coulter, Inc., Brea, Calif.), were transferred to the assay plates using the Biomek FX pintool (2.5% final DMSO in assay). […] Plates were sealed, briefly shaken and incubated at 25° C. for 30 minutes. […] Plates were sealed, briefly shaken and incubated at 25° C. for 1 hour.
Inhibition curves for compounds were generated by plotting percent control activity versus log 10 of the concentration of compound. IC50 values were calculated by nonlinear regression using the sigmoidal dose-response (variable slope) equation in GraphPad Prism as follows: y=bottom+(top−bottom)/(1+10(log IC50−x)*Hill Slope) where y is the % kinase activity at a given concentration of compound, x is the logarithm of the concentration of compound, bottom is the % of control kinase activity at the highest compound concentration tested, and top is the % of control kinase activity at the lowest compound concentration examined. The values for bottom and top were fixed at 0 and 100, respectively.

[2] = biological target: recombinant human baculovirus-expressed cMET (Homo sapiens (Human), UniProt P08581); assay: C-MET Kinase Assay (HTRF KinEASE); assay type: biochemical; conditions: average of two or more determinations; read-out: c-MET IC50
In short: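 HTRF KinEASE format with recombinant human baculovirus-expressed cMET at 8 ng/mL, biotinylated peptide at 0.1 μM and ATP at 0.02 μM. IC50 came from percent control activity versus log concentration, fitted by nonlinear regression to a variable-slope sigmoidal equation with bottom fixed at 0 and top at 100.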

Row | Structure (SMILES) | IC50 [1] | IC50 [2]
1 | COc1cc2nccc(Oc3ccc(NC(=O)c4cn(C(C)C)c(=O)n(-c5ccc(F)cc5)c4=O)nc3)c2cc1OC [Example 34, 3-(4-Fluorophenyl)-1-isopropyl-2,4-dioxo-1,2,3,4-tetrahydropyrimidine-5-carboxylic acid [5-(6,7-dimethoxyquinolin-4-yloxy)-pyridin-2-yl]-amide] | < 10 nM | 10 to 100 nM
2 | COc1cc2nccc(Oc3ccc(NC(=O)c4cn(CCO)c(=O)n(-c5ccc(F)cc5)c4=O)cc3F)c2cc1OC [Example 49, 3-(4-Fluorophenyl)-1-(2-hydroxyethyl)-2,4-dioxo-1,2,3,4-tetrahydropyrimidine-5-carboxylic acid [4-(6,7-dimethoxyquinolin-4-yloxy)-3-fluorophenyl]-amide] | < 10 nM | < 10 nM
3 | COc1cc2nccc(Oc3ccc(NC(=O)c4cn(CCCO)c(=O)n(-c5ccc(F)cc5)c4=O)cc3F)c2cc1OC [Example 50, 3-(4-Fluorophenyl)-1-(3-hydroxypropyl)-2,4-dioxo-1,2,3,4-tetrahydropyrimidine-5-carboxylic acid [4-(6,7-dimethoxyquinolin-4-yloxy)-3-fluorophenyl]-amide] | < 10 nM | < 10 nM
4 | COc1cc2nccc(Oc3ccc(NC(=O)c4cn(CCCO)c(=O)n(-c5ccc(F)cc5)c4=O)c(F)c3)c2cc1OC [Example 51, 3-(4-Fluorophenyl)-1-(3-hydroxypropyl)-2,4-dioxo-1,2,3,4-tetrahydropyrimidine-5-carboxylic acid [4-(6,7-dimethoxy-quinolin-4-yloxy)-2-fluoro-phenyl]-amide] | < 10 nM | < 10 nM
5 | COc1cc2nccc(Oc3ccc(NC(=O)c4cn(CCCO)c(=O)n(-c5ccc(F)cc5)c4=O)cc3)c2cc1OC [Example 52, 3-(4-Fluorophenyl)-1-(3-hydroxypropyl)-2,4-dioxo-1,2,3,4-tetrahydropyrimidine-5-carboxylic acid [4-(6,7-dimethoxyquinolin-4-yloxy)phenyl]-amide] | < 10 nM | 10 to 100 nM
6 | COc1cc2nccc(Oc3ccc(NC(=O)c4cn(CCO)c(=O)n(-c5ccc(F)cc5)c4=O)cc3)c2cc1OC [Example 53, 3-(4-Fluorophenyl)-1-(2-hydroxyethyl)-2,4-dioxo-1,2,3,4-tetrahydropyrimidine-5-carboxylic acid [4-(6,7-dimethoxyquinolin-4-yloxy)phenyl]-amide] | < 10 nM | < 10 nM
7 | COc1cc2nccc(Oc3ccc(NC(=O)c4cn(C[C@H](O)CO)c(=O)n(-c5ccc(F)cc5)c4=O)cc3F)c2cc1OC [Example 54, 1-((S)-2,3-Dihydroxypropyl)-3-(4-fluorophenyl)-2,4-dioxo-1,2,3,4-tetrahydropyrimidine-5-carboxylic acid [4-(6,7-dimethoxyquinolin-4-yloxy)-3-fluorophenyl]-amide] | < 10 nM | 10 to 100 nM
8 | COc1cc2nccc(C(O)c3ccc(NC(=O)c4cn(C)c(=O)n(-c5ccc(F)cc5)c4=O)cc3F)c2cc1OC (stereo not drawn) [Example 57, 3-(4-fluoro-phenyl)-1-methyl-2,4-dioxo-1,2,3,4-tetrahydro-pyrimidine-5-carboxylic acid {4-[(6,7-dimethoxy-quinolin-4-yl)-hydroxy-methyl]-3-fluoro-phenyl}-amide] | < 10 nM | 101 to 1000 nM
9 | COc1cc2nccc(Cc3ccc(NC(=O)c4cn(C)c(=O)n(-c5ccc(F)cc5)c4=O)cc3F)c2cc1OC [Example 58, 3-(4-fluoro-phenyl)-1-methyl-2,4-dioxo-1,2,3,4-tetrahydro-pyrimidine-5-carboxylic acid [4-(6,7-dimethoxy-quinolin-4-ylmethyl)-3-fluoro-phenyl]-amide] | < 10 nM | 10 to 100 nM
10 | C#CCn1cc(C(=O)Nc2ccc(Oc3ccnc4cc(OC)c(OC)cc34)c(F)c2)c(=O)n(-c2ccc(F)cc2)c1=O [Example 61, 3-(4-Fluoro-phenyl)-2,4-dioxo-1-prop-2-ynyl-1,2,3,4-tetrahydro-pyrimidine-5-carboxylic acid [4-(6,7-dimethoxy-quinolin-4-yloxy)-3-fluoro-phenyl]-amide] | < 10 nM | < 10 nM
11 | COc1cc2nccc(Oc3ccc(NC(=O)c4cn(CCn5ccnc5)c(=O)n(-c5ccc(F)cc5)c4=O)cc3F)c2cc1OC [Example 62, 3-(4-Fluoro-phenyl)-1-(2-imidazol-1-yl-ethyl)-2,4-dioxo-1,2,3,4-tetrahydro-pyrimidine-5-carboxylic acid [4-(6,7-dimethoxy-quinolin-4-yloxy)-3-fluoro-phenyl]-amide] | < 10 nM | < 10 nM

Now from value to compound:

Row | IC50 [1] | IC50 [2] | Structure (SMILES)
12 | < 10 nM | < 10 nM | COc1cc2nccc(Oc3ccc(NC(=O)c4cn(C(C)C)c(=O)n(-c5ccc(F)cc5)c4=O)cc3)c2cc1OC [Example 23, 3-(4-Fluorophenyl)-1-isopropyl-2,4-dioxo-1,2,3,4-tetrahydropyrimidine-5-carboxylic acid [4-(6,7-dimethoxyquinolin-4-yloxy)phenyl]-amide]
13 | < 10 nM | < 10 nM | COc1cc2nccc(Oc3ccc(NC(=O)c4c[nH]c(=O)n(-c5ccc(F)cc5)c4=O)cc3)c2cc1OC [Example 24, 3-(4-Fluorophenyl)-2,4-dioxo-1,2,3,4-tetrahydropyrimidine-5-carboxylic acid [4-(6,7-dimethoxyquinolin-4-yloxy)phenyl]-amide]
14 | < 10 nM | 10 to 100 nM | COc1cc2nccc(Oc3ccc(NC(=O)c4cn(CCN5CCCC5)c(=O)n(-c5ccc(F)cc5)c4=O)cc3F)c2cc1OC [Example 26, 3-(4-Fluorophenyl)-2,4-dioxo-1-(2-pyrrolidin-1-yl-ethyl)-1,2,3,4-tetrahydropyrimidine-5-carboxylic acid [4-(6,7-dimethoxyquinolin-4-yloxy)-3-fluorophenyl]-amide]
15 | < 10 nM | 10 to 100 nM | COc1cc2nccc(Oc3ccc(NC(=O)c4cn(CCN5CCCCC5)c(=O)n(-c5ccc(F)cc5)c4=O)cc3F)c2cc1OC [Example 27, 3-(4-Fluorophenyl)-2,4-dioxo-1-(2-piperidin-1-yl-ethyl)-1,2,3,4-tetrahydropyrimidine-5-carboxylic acid [4-(6,7-dimethoxyquinolin-4-yloxy)-3-fluorophenyl]-amide]
16 | < 10 nM | < 10 nM | CCn1cc(C(=O)Nc2ccc(Oc3ccnc4cc(OC)c(OC)cc34)cc2)c(=O)n(-c2ccc(F)cc2)c1=O [Example 28, 1-Ethyl-3-(4-fluorophenyl)-2,4-dioxo-1,2,3,4-tetrahydropyrimidine-5-carboxylic acid [4-(6,7-dimethoxyquinolin-4-yloxy)-phenyl]-amide]
17 | < 10 nM | 10 to 100 nM | COc1cc2nccc(Oc3ccc(NC(=O)c4cn(C5CCC5)c(=O)n(-c5ccc(F)cc5)c4=O)cc3F)c2cc1OC [Example 29, 1-Cyclobutyl-3-(4-fluorophenyl)-2,4-dioxo-1,2,3,4-tetrahydropyrimidine-5-carboxylic acid [4-(6,7-dimethoxyquinolin-4-yloxy)-3-fluorophenyl]-amide]
18 | < 10 nM | 10 to 100 nM | COc1cc2nccc(Oc3ccc(NC(=O)c4cn(C5CCOCC5)c(=O)n(-c5ccc(F)cc5)c4=O)cc3F)c2cc1OC [Example 30, 3-(4-Fluorophenyl)-2,4-dioxo-1-(tetrahydropyran-4-yl)-1,2,3,4-tetrahydropyrimidine-5-carboxylic acid [4-(6,7-dimethoxyquinolin-4-yloxy)-3-fluorophenyl]-amide]
19 | < 10 nM | 10 to 100 nM | CCn1cc(C(=O)Nc2ccc(Oc3ccnc4cc(OC)c(OC)cc34)cn2)c(=O)n(-c2ccc(F)cc2)c1=O [Example 31, 1-Ethyl-3-(4-fluorophenyl)-2,4-dioxo-1,2,3,4-tetrahydropyrimidine-5-carboxylic acid [5-(6,7-dimethoxyquinolin-4-yloxy)-pyridin-2-yl]-amide]
20 | < 10 nM | < 10 nM | CCn1c(C)c(C(=O)Nc2ccc(Oc3ccnc4cc(OC)c(OC)cc34)c(F)c2)c(=O)n(-c2ccc(F)cc2)c1=O [Example 32, 1-Ethyl-3-(4-fluorophenyl)-6-methyl-2,4-dioxo-1,2,3,4-tetrahydropyrimidine-5-carboxylic acid [4-(6,7-dimethoxyquinolin-4-yloxy)-3-fluorophenyl]-amide]
21 | < 10 nM | 10 to 100 nM | CCOc1cc2nccc(Oc3ccc(NC(=O)c4cn(CC)c(=O)n(-c5ccc(F)cc5)c4=O)cc3F)c2cc1OCC [Example 33, 1-Ethyl-3-(4-fluorophenyl)-2,4-dioxo-1,2,3,4-tetrahydropyrimidine-5-carboxylic acid [4-(6,7-diethoxyquinolin-4-yloxy)-3-fluorophenyl]-amide]
